Test results taken from US20240301319A1, “PERFUMING COMPOSITIONS” (FIRMNICH SA, priority 2017, published 2024).
Like-named read-outs stand apart in the source and are kept apart here.

Tests used:
[1] = Volatility of perfuming compounds (Tables 4 to 10), with top/middle/bottom note type; type: physicochemical
Summary of the method: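 Volatility is expressed in μg/l in air. Top notes are 70,000 to 100 μg/l, middle notes 99 to 50 μg/l, and bottom notes 49 to 0.1 μg/l. Compounds are grouped by olfactive family: watery, green, fruity, citrus, sweet, gourmand and woody.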

[2] = Odor threshold and odor value of perfuming compounds (Tables 4 to 10)
[3] = Table 6, perfuming compounds having a fruity note
[4] = Table 6, perfuming compounds having a fruity note, note type by volatility
[5] = note type (Top/Middle/Bottom) by volatility, perfuming compounds having a green note
[6] = perfuming compounds having a green note
[7] = Table 10, perfuming compounds having a woody note, note type by volatility
[8] = Table 7, citrus note, top, middle or bottom note
[9] = Table 7, citrus note, equals volatility divided by odor threshold
[10] = Table 8, perfuming compounds having a sweet note
[11] = Table 8, perfuming compounds having a sweet note, note type by volatility
[12] = Table 9, perfuming compounds having a gourmand note, note type by volatility

Molecule: C[C@@H]1CC[C@@H](C(C)(C)S)C(=O)C1 [(1R,4R)-8-MERCAPTO-3-P-MENTHANONE]
- Volatility [1, 3]: 155.12 μg/l air
- Type [1, 4]: TOP (perfuming compounds having a volatility ranging from 70,000 to 100 μg/l in air are referred to as “top notes”)
- Type [1, 5]: Top
- Volatility (μg/l air) [1, 6]: 155.12 μg/l air
- Odor Threshold (μg/l air) [2, 6]: 3.43E−05 μg/l air

Molecule: CCCC(O)CC[C@@H]1[C@@H](C)CCCC1(C)C (mixture of isomers)
- Type [1, 7]: Bottom
- Volatility ([1]; Table 10, woody note): 2.34 μg/l air
- Odor Threshold ([2]; Table 10, woody note): 5.92E−04 μg/l air

Molecule: (A) + (+−)-3,5,6,6-tetramethyl-4-methylidene-2-heptanone (B) + (+−)-(4E)-3,4,5,6,6-pentamethyl-4-hepten-2-one (C) + (+−)-(3Z)-3,4,5,6,6-pentamethyl-3-hepten-2-one (D) + (+−)-(3E)-3,4,5,6,6-pentamethyl-3-hepten-2-one (E)
- Volatility (μg/l air) ([1]; Table 7, citrus note): 659.22 μg/l air
- Type [1, 8]: Top
- Odor Threshold (μg/l air) ([2]; Table 7, citrus note): 7.24E−02 μg/l air
- Odor Value [2, 9]: 9.11E+03

Molecule: CC(=O)/C=C/C1C(C)CCC(C)C1(C)C (racemic)
- Type [1, 7]: Bottom
- Volatility ([1]; Table 10, woody note): 20.50 μg/l air
- Odor Threshold ([2]; Table 10, woody note): 5.14E−04 μg/l air

Molecule: CCCCCC(C#N)CCC (racemic) [(+−)-2-propylheptanenitrile]
- Volatility [1, 3]: 439.00 μg/l air
- Type [1, 4]: TOP (perfuming compounds having a volatility ranging from 70,000 to 100 μg/l in air are referred to as “top notes”)
- Volatility (μg/l air) ([1]; Table 7, citrus note): 439.00 μg/l air
- Type [1, 8]: Top
- Odor Threshold (μg/l air) ([2]; Table 7, citrus note): 7.83E−02 μg/l air
- Odor Value [2, 9]: 5.61E+03

Molecule: CC/C=C\CCOC(=O)c1ccccc1O [(3Z)-3-hexen-1-yl salicylate]
- Type [1, 5]: Bottom
- Volatility (μg/l air) [1, 6]: 4.34 μg/l air
- Odor Threshold (μg/l air) [2, 6]: 3.23E−04 μg/l air

Molecule: CCC(=O)OCC(C)(C)OC(C)C1CCCC(C)(C)C1 (single isomer, unassigned; (+))
- Volatility [1, 3]: 4.39 μg/l air
- Type [1, 4]: Bottom
- Odor Threshold [2, 3]: 3.69E−04 μg/l air
- Odor Value [2, 3]: 1.19E+04

Molecule: C=CC1(C)CCCC(C)(C)O1 (racemic)
- Type [1, 5]: Top
- Volatility (μg/l air) [1, 6]: 23116.66 μg/l air
- Odor Threshold (μg/l air) [2, 6]: 1.64E−01 μg/l air

Molecule: CC(=O)/C=C/C1C(C)=CCCC1(C)C (racemic)
- Type [1, 5]: Middle
- Volatility (μg/l air) [1, 6]: 68.11 μg/l air
- Odor Threshold (μg/l air) [2, 6]: 5.30E−04 μg/l air

Molecule: CCc1occc(=O)c1O [2-ETHYL-3-HYDROXY-4(4H)-PYRANONE]
- Volatility [1, 3]: 48.86 μg/l air
- Type [1, 4]: Bottom
- Volatility [1, 10]: 48.86 μg/l air
- Type [1, 11]: Bottom
- Odor Threshold [2, 3]: 6.45E−05 μg/l air
- Odor Value [2, 3]: 7.57E+05
- Odor Threshold [2, 10]: 6.45E−05 μg/l air
- Odor Value [2, 10]: 7.57E+05

Molecule: CC(C)[C@@H]1CC[C@@H](C)CC1=NO
- Type [1, 5]: Bottom
- Volatility (μg/l air) [1, 6]: 22.29 μg/l air
- Odor Threshold (μg/l air) [2, 6]: 5.52E−05 μg/l air

Molecule: CCCCC/C=C\C=C\C(=O)OCC [ethyl (2E,4Z)-2,4-decadienoate]
- Volatility [1, 3]: 36.76 μg/l air
- Type [1, 4]: Bottom
- Type [1, 5]: Bottom
- Volatility (μg/l air) [1, 6]: 36.76 μg/l air
- Odor Threshold [2, 3]: 3.07E−04 μg/l air
- Odor Value [2, 3]: 1.20E+05
- Odor Threshold (μg/l air) [2, 6]: 3.07E−04 μg/l air

Molecule: (Z)-3,7-DIMETHYL-2,6-OCTADIENAL (A) + (E)-3,7-DIMETHYL-2,6-OCTADIENAL (B)
- Volatility (μg/l air) ([1]; Table 7, citrus note): 202.66 μg/l air
- Type [1, 8]: Top
- Odor Threshold (μg/l air) ([2]; Table 7, citrus note): 4.12E−03 μg/l air
- Odor Value [2, 9]: 4.92E+04

Molecule: CCCCCC1CCCC1=O (racemic) [(+−)-2-pentylcyclopentanone]
- Volatility [1, 3]: 560.22 μg/l air
- Type [1, 4]: TOP (perfuming compounds having a volatility ranging from 70,000 to 100 μg/l in air are referred to as “top notes”)
- Volatility [1, 10]: 560.22 μg/l air
- Type [1, 11]: Top
- Volatility ([1]; Table 9, gourmand note): 560.22 μg/l air
- Type [1, 12]: Top
- Odor Threshold [2, 10]: 1.28E−03 μg/l air
- Odor Value [2, 10]: 4.38E+05
- Odor Threshold ([2]; Table 9, gourmand note): 1.28E−03 μg/l air

Molecule: CCC(=O)/C=C/C1=C(C)CCCC1(C)C
- Volatility [1, 10]: 15.81 μg/l air
- Type [1, 11]: Bottom
- Volatility ([1]; Table 9, gourmand note): 15.81 μg/l air
- Type [1, 12]: Bottom
- Odor Threshold [2, 10]: 1.16E−04 μg/l air
- Odor Value [2, 10]: 1.37E+05
- Odor Threshold ([2]; Table 9, gourmand note): 1.16E−04 μg/l air

Molecule: CCCC1CCC(O)C(OC)C1 (stereo not drawn) [2-METHOXY-4-PROPYL-1-CYCLOHEXANOL]
- Volatility (μg/l air) [1]: 189.74 μg/l air
- Type [1, 5]: Top
- Odor Threshold (μg/l air) [2, 6]: 2.85E−02 μg/l air
